Structures can show the parent of a compound that is named as a salt.
Tests used:
AMPK = AMPK activation effect (AMPK [pT172] ELISA) in MCF7 cells; format: cell-based, human; conditions: 24 hours; for AMPK activation effect (%) 5 μM / AMPK activation effect (%) 10 μM / AMPK activation effect (%) 50 μM: AMPKα Thr172 phosphorylation relative to untreated cells; for AC150: concentration at which AMPK activation reached 150%
Outline: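 MCF7 cells in DMEM/10% FBS were treated 24 h with compounds at 5, 10 and 50 uM. Lysates (20 μg protein) were assayed by ELISA for AMPKα Thr172 phosphorylation as the activation read-out.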

HCT116 cells = assay: Effect of inhibiting cancer cell proliferation (MTT) in HCT116 cells; format: cell-based, human; conditions: Homo sapiens, HCT-116, 48 h; for inhibition at 25 µM: read-out: Cell growth inhibition (%) at 25 μM; for inhibition at 100 µM: read-out: Cell growth inhibition (%) at 100 μM
Outline: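 HCT116 colorectal cells (about 5,000 per well, DMEM with 10% FBS) treated with 100, 25, 6.25, 1.56 or 0.39 μM compound for 48 h. MTT added for 3 h, formazan read at 560 nm; GIC50 taken from viability relative to untreated cells.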

Row | Structure (SMILES) | AMPK activation effect (%) 5 μM (AMPK) [%] | AMPK activation effect (%) 10 μM (AMPK) [%] | AC150 (AMPK) [µM] | GI50 (HCT116 cells) [µM] | inhibition at 25 µM (HCT116 cells) [%] | AMPK activation effect (%) 50 μM (AMPK) [%] | inhibition at 100 µM (HCT116 cells) [%]
1 | CC1CCCCN1C(=N)NC(=N)Nc1ccc(C(F)(F)F)cc1.Cl (stereo not drawn) [Example 74, N1-(2-methyl)piperidine-N5-(4-trifluoromethyl)phenyl biguanide hydrochloride] | 199 | 410 | 2.0 | 8.7 | 100 |  | 
2 | Cl.N=C(NC(=N)N1CC=CC1)Nc1ccccc1 [Example 44, N1-1,2-dihydropyrrole-N5-phenyl biguanide hydrochloride] |  | 289 | 1.7 | > 100 |  | 577 | 27.8
3 | CC1=CCN(C(=N)NC(=N)Nc2ccc(Cl)c(C(F)(F)F)c2)C1.Cl [Example 18, N1-(3-methyl)-1,2-dihydropyrrole-N5-(4-chloro, 3-trifluoromethyl)phenyl biguanide hydrochloride] |  |  | 0.81 | 2.6 |  |  | 99.5
4 | CC1CCCN(C(=N)NC(=N)NCc2ccc(OC(F)(F)F)cc2)C1.Cl (stereo not drawn) [Example 84, N1-(3-methyl)piperidine-N5-(4-trifluoromethoxy)benzyl biguanide hydrochloride] | 317 | 555 | 1.1 | 10.4 | 97 |  | 
5 | Cl.N=C(NC(=N)N1CC=CCC1)Nc1ccc(F)c(C(F)(F)F)c1 [Example 32, N1-1,2,3,6-tetrahydropyridine-N5-(4-fluoro, 3-trifluoromethyl)phenyl biguanide hydrochloride] |  | 837 | 0.62 | 7.9 |  |  | 99.4
6 | Cl.N=C(NCc1cccc(OC(F)(F)F)c1)NC(=N)N1CC=CC1 [Example 14, N1-1,2-dihydropyrrole-N5-(3-trifluoromethoxy)benzyl biguanide hydrochloride] |  | 151 | 8.4 | 17.5 |  | 507 | 98.8
7 | N=C(NC(=N)N1CC=CCC1)Nc1ccc(Br)cc1 [Example 36, N1-1,2,3,6-tetrahydropyridine-N5-(4-bromo)phenyl biguanide hydrochloride] |  | 568 | 0.87 | 11.2 |  |  | 99
8 | CC1CCCN(C(=N)NC(=N)NCc2ccc(C(F)(F)F)cc2)C1.Cl (stereo not drawn) [Example 86, N1-(3-methyl)piperidine-N5-(4-trifluoromethyl)benzyl biguanide hydrochloride] | 147 | 330 | 2.3 | 27.6 | 49 |  | 
9 | CC1CCCC(C)N1C(=N)NC(=N)Nc1cccc(C(F)(F)F)c1.Cl (stereo not drawn) [Example 92, N1-(2,6-dimethyl)piperidine-N5-(3-trifluoromethyl)phenyl biguanide hydrochloride] | 324 | 417 | 0.8 | 7.5 | 100 |  | 
10 | CC1=CCN(C(=N)NC(=N)NCc2ccc(C(F)(F)F)cc2)C1.Cl [Example 26, N1-(3-methyl)-1,2-dihydropyrrole-N5-(4-trifluoromethyl)benzyl biguanide hydrochloride] |  | 443 | 0.68 | 8.2 |  | 358 | 96.7
11 | Cl.N=C(NCc1ccc(C(F)(F)F)cc1)NC(=N)N1CC=CC1 [Example 13, N1-1,2-dihydropyrrole-N5-(4-trifluoromethyl)benzyl biguanide hydrochloride] |  | 135 | 9.0 | 77.1 |  | 462 | 57.8

Reference: patent US9884821B2, “N1-cyclic amine-N5-substituted biguanide derivatives, methods of preparing the same and pharmaceutical composition comprising the same” (IMMUNOMET THERAPEUTICS INC., priority 2013, dated 2018)
